# “Also recorded” adds a separate entry of the source.
# Assays:
# Nef/CNX interaction = molecular target: T1, Nef/CNX interaction (Human immunodeficiency virus type 1 group M subtype B, UniProt P03406); test: Co-immunoprecipitation of Nef and calnexin in transfected HEK293T cells; type: cell-based, HIV-1; details: for inhibition of co-immunoprecipitation of Nef and calnexin: added 6 h post-transfection, lysed 48 h post-transfection, HEK293T
# T1 construct: expressed in transfected cells; host or cells: HEK293T
# Experimental: (§1) To test whether the compounds identified in the virtual screen can interfere with Nef/CNX interaction, a co-immunoprecipitation assay was performed. HEK293T cells were transfected with plasmid encoding for NefBRU and 6 h post-transfection were treated with NSC 1758 (4 μM), NSC 13987 (5 μM), or NSC 92938 (5 μM). These concentrations of the compounds were determined by the MTT assay to reduce cell metabolism by less than 10% during 5-day incubation (FIG. 6C). […] It was previously shown that membrane localization of Nef is important for interaction of Nef with calnexin (5). In order to rule out the possibility that the compound interferes with membrane localization of Nef, it was tested whether NSC 13987 affects interaction between Nef and ABCA1, as ABCA1/Nef interaction also requires membrane localization of Nef (1).
# Their overall location in the structural alignment with the model of Nef-CNX complex is shown as translucent molecular surface. […] The set of compounds includes NSC 1758, NSC 13987, and NSC 92938 selected for experimental testing. b, Compound NSC 13987 docked to Nef binding site, which is centered on Lys4 and Lys7. Interactions of the compound with Nef include two hydrogen bonds with Nef amino acid residues Ser6 and Tyr124. […] THP-1 cells were treated with indicated compounds for 5 days and cytotoxicity was measured using MTT assay. In panel (D), HEK 293T cells were transfected with HA-tagged Nef, treated with compounds NSC 1758, NSC 13987 or NSC 92938, and lysed. Nef was immunoprecipitated using anti-HA agarose beads and bound complexes were immunoblotted for Nef and calnexin (left panels labeled IP: aIIA). Densitometric quantification of calnexin co-immunoprecipitation with Nef is presented in the right panel. Error bars indicate +/−SD of 3 independent experiments, and p values are shown above the bars. Whole cell lysates were analyzed for amount of calnexin, Nef and GAPDH (left panels labeled Lysate). In panel (E), HEK293T cells were co-transfected with ABCA1-FLAG and NefBRU and treated with compound NSC 13987. Cells were lysed 48 h post-transfection and ABCA1-FLAG was immunoprecipitated using anti-FLAG beads. Precipitated complexes were blotted for ABCA1 and Nef (top panels). Input amount was analyzed from whole cell lysates by immunoblotting for ABCA1, Nef and GAPDH (bottom panels).
# Immunoprecipitation—For calnexin mutant/Nef interaction analysis, HEK293T cells were transfected with HA-tagged calnexin mutants and NefBRU expression plasmid. Cells were lysed 48 h post-transfection with 1% IGEPAL and 0.1% SDS lysis buffer on ice for 30 min. Lysates were incubated with anti-HA agarose beads for 2 h at 4° C. with rotation. Respective immunoprecipitates were washed three times with TBS (150 mM NaCl, 30 mM Tris-HCl, 5 mM EDTA, pH 7.5). […]
# [1] = system: THP-1 cells transfected with Nef; test: apoA-I specific cholesterol efflux in Nef-transfected THP-1 cells; type: cell-based; details: THP-1, PMA-activated, compared to DMSO-treated Nef expressing cells
# Experimental: Next, it was tested whether the three compounds could prevent impairment of cholesterol efflux by Nef. THP-1 cells were transfected with a Nef encoding plasmid and drug treatment was started 6 h after transfection. The following day cells were activated with PMA after which cholesterol efflux assay was performed. Drug treatment was continued throughout the duration of the experiment. […] Cholesterol efflux in Nef-transfected untreated or DMSO-treated cells was reduced by over 2-fold relative to mock-transfected cells.
# Specifically, in panel (A) THP-1 cells were transfected with Nef and incubated with compounds NSC 1758, NSC 13987 and NSC 92938 or DMSO, and cholesterol efflux was measured 5 days post-transfection. Error bars show SEM. In panel (B) primary macrophages were infected in triplicate with HIV-1 ADA. Compound NSC 13987 (5 μM) or DMSO was added 3 days after infection and maintained thereafter, and virus replication was monitored by measuring RT-activity in the supernatant over a 14-day period. […] In panel (C) primary macrophages were infected with HIV-1 ADA or mock-infected and treated with DMSO or NSC13987 as in panel B. Cholesterol efflux was measured 14 days post-infection. […]
# (§2) Cholesterol Efflux—Infected cells were seeded in a 24-well plate and labeled with [^3H] cholesterol for 48 h. […] Level of radioactivity in the media as well as in the cells was determined by scintillation counting. […]
# HIV-1 ADA = HIV-1 ADA replication in monocyte-derived macrophages (RT activity in supernatant); type: cell-based
# Experimental: (§3) To test the effect of NSC 13987 in the context of natural infection, monocyte-derived macrophages (MDM) were infected with HIV-1 ADA, treated with NSC 13987 and cholesterol efflux was measured.
# (§4) Specifically, in panel (A) THP-1 cells were transfected with Nef and incubated with compounds NSC 1758, NSC 13987 and NSC 92938 or DMSO, and cholesterol efflux was measured 5 days post-transfection. Error bars show SEM. In panel (B) primary macrophages were infected in triplicate with HIV-1 ADA. Compound NSC 13987 (5 μM) or DMSO was added 3 days after infection and maintained thereafter, and virus replication was monitored by measuring RT-activity in the supernatant over a 14-day period. Results of 3 measurements are shown as mean ±SEM. *, p<0.005; **, p<0.007. In panel (C) primary macrophages were infected with HIV-1 ADA or mock-infected and treated with DMSO or NSC13987 as in panel B. Cholesterol efflux was measured 14 days post-infection. Error bars show SEM.
# ABCA1/Nef interaction = molecular target: T2, ABCA1/Nef interaction (Human immunodeficiency virus type 1 group M subtype B, UniProt P03406); test: Co-immunoprecipitation of ABCA1-FLAG and Nef in HEK293T cells; type: cell-based, HIV-1; details: HEK293T co-transfected with ABCA1-FLAG and NefBRU, lysed 48 h post-transfection
# T2 construct: expressed in transfected cells; host or cells: HEK293T
# T2 sequence (O95477 whole entry, other chains not shown): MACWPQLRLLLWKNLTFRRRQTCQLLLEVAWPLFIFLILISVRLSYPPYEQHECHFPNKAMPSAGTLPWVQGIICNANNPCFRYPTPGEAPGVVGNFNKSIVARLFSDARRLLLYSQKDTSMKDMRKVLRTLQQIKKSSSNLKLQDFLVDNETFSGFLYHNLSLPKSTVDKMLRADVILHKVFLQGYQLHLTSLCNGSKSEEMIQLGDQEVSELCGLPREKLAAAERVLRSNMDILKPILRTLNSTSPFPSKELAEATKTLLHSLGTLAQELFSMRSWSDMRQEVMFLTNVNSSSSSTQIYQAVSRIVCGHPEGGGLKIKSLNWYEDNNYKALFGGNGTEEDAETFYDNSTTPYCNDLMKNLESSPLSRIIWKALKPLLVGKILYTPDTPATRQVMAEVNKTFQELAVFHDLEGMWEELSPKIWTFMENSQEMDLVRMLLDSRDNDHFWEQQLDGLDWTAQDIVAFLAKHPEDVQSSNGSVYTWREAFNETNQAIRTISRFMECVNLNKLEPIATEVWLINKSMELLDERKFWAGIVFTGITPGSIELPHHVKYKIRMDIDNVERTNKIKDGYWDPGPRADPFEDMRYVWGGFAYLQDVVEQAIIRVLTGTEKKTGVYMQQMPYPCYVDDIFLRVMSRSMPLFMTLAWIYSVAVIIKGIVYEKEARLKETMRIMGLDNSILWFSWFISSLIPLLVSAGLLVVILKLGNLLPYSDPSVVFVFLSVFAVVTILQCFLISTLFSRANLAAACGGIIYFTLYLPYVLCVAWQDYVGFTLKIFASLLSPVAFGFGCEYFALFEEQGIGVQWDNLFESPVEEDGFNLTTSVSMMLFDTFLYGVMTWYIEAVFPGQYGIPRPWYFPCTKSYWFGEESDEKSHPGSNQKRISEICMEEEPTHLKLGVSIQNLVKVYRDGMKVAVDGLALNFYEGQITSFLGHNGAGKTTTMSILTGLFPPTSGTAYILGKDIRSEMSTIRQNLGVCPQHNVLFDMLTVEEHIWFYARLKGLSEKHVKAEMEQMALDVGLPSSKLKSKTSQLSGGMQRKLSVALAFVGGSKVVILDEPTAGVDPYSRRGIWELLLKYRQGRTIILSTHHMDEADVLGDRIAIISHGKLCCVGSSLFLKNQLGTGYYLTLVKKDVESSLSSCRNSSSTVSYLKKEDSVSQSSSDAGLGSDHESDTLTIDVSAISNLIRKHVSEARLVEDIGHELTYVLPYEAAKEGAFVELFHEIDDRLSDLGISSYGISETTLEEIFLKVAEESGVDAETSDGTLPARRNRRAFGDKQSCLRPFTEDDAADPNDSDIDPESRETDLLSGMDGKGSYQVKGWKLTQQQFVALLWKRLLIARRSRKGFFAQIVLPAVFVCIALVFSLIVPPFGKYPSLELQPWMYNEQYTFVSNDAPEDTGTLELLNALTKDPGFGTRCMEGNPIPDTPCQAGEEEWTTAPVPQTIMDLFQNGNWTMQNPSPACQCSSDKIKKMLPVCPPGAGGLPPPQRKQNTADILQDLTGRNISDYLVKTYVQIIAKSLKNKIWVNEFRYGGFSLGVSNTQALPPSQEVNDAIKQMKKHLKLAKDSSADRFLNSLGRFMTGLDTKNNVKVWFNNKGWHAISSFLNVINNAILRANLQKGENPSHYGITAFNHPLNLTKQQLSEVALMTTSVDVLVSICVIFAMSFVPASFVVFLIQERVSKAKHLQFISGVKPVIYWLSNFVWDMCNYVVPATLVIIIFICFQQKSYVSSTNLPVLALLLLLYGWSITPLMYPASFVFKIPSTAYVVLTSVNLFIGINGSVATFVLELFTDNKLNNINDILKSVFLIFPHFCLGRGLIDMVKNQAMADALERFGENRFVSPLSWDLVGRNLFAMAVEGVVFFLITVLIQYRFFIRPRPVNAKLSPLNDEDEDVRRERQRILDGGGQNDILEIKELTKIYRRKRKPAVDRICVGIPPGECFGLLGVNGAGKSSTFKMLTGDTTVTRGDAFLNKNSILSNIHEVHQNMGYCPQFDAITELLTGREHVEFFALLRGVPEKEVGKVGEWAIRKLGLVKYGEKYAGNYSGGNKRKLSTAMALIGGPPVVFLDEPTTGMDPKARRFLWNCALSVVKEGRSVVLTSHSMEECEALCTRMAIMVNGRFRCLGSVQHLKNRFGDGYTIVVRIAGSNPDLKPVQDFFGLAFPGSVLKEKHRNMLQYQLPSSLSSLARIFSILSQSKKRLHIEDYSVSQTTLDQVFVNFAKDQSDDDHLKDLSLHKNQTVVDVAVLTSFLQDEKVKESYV
# Experimental: as §1
# Their overall location in the structural alignment with the model of Nef-CNX complex is shown as translucent molecular surface. […] THP-1 cells were treated with indicated compounds for 5 days and cytotoxicity was measured using MTT assay. […] Densitometric quantification of calnexin co-immunoprecipitation with Nef is presented in the right panel. […] Whole cell lysates were analyzed for amount of calnexin, Nef and GAPDH (left panels labeled Lysate). […] Input amount was analyzed from whole cell lysates by immunoblotting for ABCA1, Nef and GAPDH (bottom panels).
# ABCA1 = ABCA1 abundance in the presence of Nef; type: cell-based
# [2] = system: monocyte-derived macrophages (MDM) infected with HIV-1 ADA; test: Cholesterol efflux from HIV-1 ADA infected monocyte-derived macrophages; type: cell-based; details: 14 days post-infection, versus mock-infected cells
# Experimental: as §3, §4
# as §2, with “counting. Cholesterol efflux was calculated as the percentage of radioactivity in the media divided by the total amount measured in the cells and media.” for “counting.”
# calnexin (CNX) = molecular target: T3, calnexin (CNX) (Homo sapiens, UniProt P27824); test: Surface plasmon resonance, immobilized full-length calnexin; type: binding; details: myristoylated Nef injected at 6.25-200 nM, 25° C.
# T3 construct: Full length CNX and the C-terminal (cytoplasmic) domain of CNX (CNX-CT) were captured on CMS chips by amine coupling; His-tag (H8) (N); made in house; host or cells: E. coli BL21 DE
# T3 sequence (P27824 21-592): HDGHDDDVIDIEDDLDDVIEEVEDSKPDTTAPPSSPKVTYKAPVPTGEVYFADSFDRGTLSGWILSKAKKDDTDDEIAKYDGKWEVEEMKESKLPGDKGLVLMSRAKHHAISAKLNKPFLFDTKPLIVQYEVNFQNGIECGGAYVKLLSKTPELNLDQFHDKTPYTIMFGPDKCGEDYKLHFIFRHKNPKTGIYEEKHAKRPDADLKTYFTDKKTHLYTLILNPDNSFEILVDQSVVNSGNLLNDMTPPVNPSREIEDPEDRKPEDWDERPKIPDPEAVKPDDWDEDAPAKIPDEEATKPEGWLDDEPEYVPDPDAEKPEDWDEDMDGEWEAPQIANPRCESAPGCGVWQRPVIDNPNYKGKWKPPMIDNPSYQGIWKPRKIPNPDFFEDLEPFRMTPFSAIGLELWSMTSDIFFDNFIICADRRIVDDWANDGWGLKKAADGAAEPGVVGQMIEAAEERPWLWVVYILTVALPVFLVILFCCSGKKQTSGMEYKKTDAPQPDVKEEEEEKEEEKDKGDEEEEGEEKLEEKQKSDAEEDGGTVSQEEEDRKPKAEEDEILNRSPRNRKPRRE
# Experimental: (§5) Binding of myristoylated NefsF2 (33) to CNX and its cytoplasmic domain was analyzed using surface plasmon resonance (FIGS. 5B,C). CNX and CNX-CT were immobilized on microchip surfaces and myristoylated Nef was injected over the surface.
# Steps of full-length CL7-tagged calnexin (CNX-CL7) purification are shown in detail. Whole cell lysate (WCL) was centrifuged to remove cell debris, the supernatant (SN) was treated with 0.07% polyethylene-emine (PE) to precipitate DNA, the pellet (PL), which contained most of CNX protein, was washed with detergent-containing buffer to release CNX into solution, centrifuged and the resulting supernatant was loaded on Immunity protein 7 (Im7) column. […] ACNX—truncated CNX fragment; SUMO—SUMO domain; P(PSC), P(SUMOP)—cleavage sites for the PSC and SUMO proteases, respectively; H8—8-Histidine tag (SEQ ID NO: 2). In panels (B) and (C), surface plasmon resonance experiments were done in a Biacore T-200 by using a CMS chip. […]
# Surface Plasmon Resonance Experiments—Direct binding between purified recombinant proteins was evaluated by surface plasmon resonance technology utilizing a Biacore T-200 instrument at the Biacore Molecular Interaction Shared Resource of Georgetown University. […] The data was analyzed by BiaEvaluation software using the bivalent analyte model.
# [3] = molecular target: T4, cytoplasmic tail of CNX (CNX-CT) (Homo sapiens, UniProt P27824); test: Surface plasmon resonance, immobilized calnexin cytoplasmic tail; type: binding; details: myristoylated Nef injected at 6.25-200 nM, 25° C.
# T4 construct: the C-terminal (cytoplasmic) domain of CNX (CNX-CT) were captured on CMS chips by amine coupling; His-tag (N); SUMO domain (N); made in house; host or cells: E. coli BL21 DE
# T4 sequence (P27824 503-592 limits assumed): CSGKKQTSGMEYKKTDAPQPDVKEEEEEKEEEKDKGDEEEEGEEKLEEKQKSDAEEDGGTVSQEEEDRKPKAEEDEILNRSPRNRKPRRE
# Experimental: as §5
# Steps of full-length CL7-tagged calnexin (CNX-CL7) purification are shown in detail. Whole cell lysate (WCL) was centrifuged to remove cell debris, the supernatant (SN) was treated with 0.07% polyethylene-emine (PE) to precipitate DNA, the pellet (PL), which contained most of CNX protein, was washed with detergent-containing buffer to release CNX into solution, centrifuged and the resulting supernatant was loaded on Immunity protein 7 (Im7) column. […] ACNX—truncated CNX fragment; SUMO—SUMO domain; P(PSC), P(SUMOP)—cleavage sites for the PSC and SUMO proteases, respectively; H8—8-Histidine tag (SEQ ID NO: 2). In panels (B) and (C), surface plasmon resonance experiments were done in a Biacore T-200 by using a CMS chip. […] Lines representing actual data and a curve fit to a […] analyte binding model in BiaEvaluation software are shown.
# Surface Plasmon Resonance Experiments—Direct binding between purified recombinant proteins was evaluated by surface plasmon resonance technology utilizing a Biacore T-200 instrument at the Biacore Molecular Interaction Shared Resource of Georgetown University. Full length CNX and the C-terminal (cytoplasmic) domain of CNX (CNX-CT) were captured on CMS chips by amine coupling. Three surfaces of CM5 chip were activated by NHS/CDC (N-hydroxysuccinimide/1-ethyl-3-(3-dimethylaminopropyl)carbodiimide hydrochloride) for 720 sec. Flow cell 1 was left empty as a reference surface. Full length CNX and CNX-CT were diluted in 10 mM sodium acetate (pH 4.0) buffer at 1.8 μM and 10.6 μM, respectively, and captured on flow cell 3 and flow cell 2, at 3200 RU and 16600 RU, respectively. After protein capture, all 3 flow cells were inactivated by 720 sec injection of 1 M ethanolamine. […] The data was analyzed by BiaEvaluation software using the bivalent analyte model.
compound,measurement,setting,value
"N=C(Nc1cc2ccccc2c2ccccc12)Nc1cc2ccccc2c2ccccc12 [NSC 1758, 1,3-DI-9-Phenanthrylguanidine]",inhibition of co-immunoprecipitation of Nef and calnexin,Nef/CNX interaction; 4 μM,showed a trend towards inhibiting Nef/CNX binding but did not reach statistical significance
"O=C1c2ccccc2C(=O)c2c(Nc3ccc4c5c(cccc35)C(=O)c3ccccc3-4)cccc21 [NSC 13987, 1[(7-Oxo-7H-benz[de]anthracene-3-yl)amino] anthraquinone]",cholesterol efflux in Nef-transfected cells,[1],significantly increased; also recorded: restored cholesterol efflux impaired by Nef
same,viral replication in the presence of the compound,"HIV-1 ADA; 5 μM added 3 days after infection, RT activity over 14 days, primary macrophages",reduced
same,inhibition of viral replication,"HIV-1 ADA; FIG. 7B, HIV-1 ADA in primary macrophages, 5 μM",~2 fold
same,effect on ABCA1/Nef interaction,ABCA1/Nef interaction,remained unaffected
same,Nef-mediated effect on ABCA1 abundance,ABCA1,reversed Nef-mediated effect on ABCA1 abundance
same,inhibition of co-immunoprecipitation of Nef and calnexin,Nef/CNX interaction; 5 μM,prevented co-precipitation of CNX with Nef
same,inhibition at 5 µM,"Nef/CNX interaction; HEK-293T, read-out: inhibition of co-immunoprecipitation of Nef and calnexin",> 50%
same,cholesterol efflux from HIV-infected cells,[2],not significantly different from that of mock-infected cells
"O=C1c2ccccc2C(=O)c2c1ccc1c2[nH]c2ccccc21 [NSC 92938, 5H-Naphtho(2,3-a)carbazole-5,13(12H)-dione]",inhibition of co-immunoprecipitation of Nef and calnexin,Nef/CNX interaction; 5 μM,showed a trend towards inhibiting Nef/CNX binding but did not reach statistical significance
NefSF2: myristoylated HIV-1 Nef SF2 protein injected over immobilized calnexin in surface plasmon resonance,ka,calnexin (CNX),133800 M⁻¹ s⁻¹
same,kd,calnexin (CNX),0.01192 s⁻¹
same,ka,[3],908300 M⁻¹ s⁻¹
same,kd,[3],0.008569 s⁻¹
same,Kd,"[3]; Biacore T-200, read-out: affinity (KD)",9.4 nM

# Reference: US11561217B2, “Compounds inhibiting Nef-calnexin interaction” (The George Washington University, a Congressionally …, priority 2016, dated 2023)
